The results in this text go back to patent publication US20260027073A1, “USE OF SMALL-MOLECULE COMPOUND HAVING NAPHTHYLAMINE STRUCTURE” (HANGZHOU PHECDAMED CO., LTD., priority 2023, published 2026).

The structures appear in SMILES notation.

The test system of one assay is CUP model mice. The assay is described as follows: Multiple sclerosis CUP model. The assay is classed as in vivo, C57BL/6. The conditions noted are these: for number of open arm entries (elevated cross maze) / walking distance (elevated cross maze) / open arm time (elevated cross maze) / number of crossing over the platform (water maze): 30 mg/kg oral gavage; for number of open arm entries (elevated cross maze): FIG. 86; for walking distance (elevated cross maze): FIG. 87; for open arm time (elevated cross maze): FIG. 88; for number of crossing over the platform (water maze): FIG. 89. As for the experimental part:
After one week of adaptive feeding in 7-8 weeks C57BL/6 female […], they were randomly divided into four groups according to their body weights: the normal control group (Control, 0.5% CMC-Na treatment by oral gavage, n=8), the model group (model, 0.5% CMC-Na treatment by oral gavage, n=8), TJ01-013 treatment group (TJ01-013, 30 mg/kg TJ01-013 by oral gavage, n=8), I-14-1 treatment group (I-14-1, oral gavage 30 mg/kg I-14-1, n=8). The normal control group was fed with the basal diet throughout for 12 weeks, and the model group, TJ01-013 treatment group, and I-14-1 treatment group were fed with 0.2% CUP diet throughout. All groups were administered 5 ml/kg in a volume of 5 ml/kg for a total of 12 weeks starting 6 weeks after modeling.
The elevated cross maze consisted of two open arms (35 cm×6 cm) and two closed arms (35 cm×6 cm×14 cm), with the middle area (6 cm×6 cm) and a height of 70 cm above the ground, and the mice were placed in the middle area facing the open arms, and were active for 5 min in a 50 cm×50 cm open field prior to the start of the test. During the test, the activity time, the activity distance and the number of open arm entries in the mice were counted. Each mouse was wiped with 75% alcohol on the maze after the test.
The mice were placed in a basin with a diameter of 70 cm and a height of 30 cm, and the water temperature was about 22-24° C. The basin was divided into four quadrants, and a platform with a diameter of 5 cm was placed in the target quadrant, which was placed 1 cm below the surface of the water. The mice were acclimatized for 1 day before the official test and learned for 4 days, during learning, the mice entered the water in the direction of facing the wall of the basin, and were given 60 s to search for the platform, or else were guided to learn for 30 s on the platform, and the time that the mice found the platform during learning was recorded. The platform was withdrawn on the day of the test, and the number of crossing over the platform after entering from the opposite quadrant of the target quadrant in mice was recorded to determine the spatial learning and memory ability of the mice.

The test system of assay [1] is mice with renal ischemia-reperfusion. The assay is described as follows: Unilateral renal ischemia-reperfusion acute kidney injury. The assay is classed as in vivo, C57BL/6 mice. As for the experimental part: 8-week-old C57BL/6 mice (weighing about 20-25 g) were injected intraperitoneally with 50 mg/kg sodium pentobarbital. After the mice were anesthetized, carried out preserved skin and placed on a thermostatic table, the skin and muscle of the right side were incised from the back and the right kidney was exposed, and the tissue around the pedicle of the kidney was stripped off with forceps to expose the blood vessels and the ureter. The arterial and venous blood vessels and the ureter were ligated with sutures. After removing the kidney, the muscle and skin were sutured with sutures and placed at 37° C. to wake it up, and after waking up, the mice were given […] of I-1. The experiments were divided into a sham group (exposing the right side of the kidney without removing it), a control group (giving solvent treatment by oral gavage), a 10 mg/kg group (10 mg/kg I-1 by oral gavage) and a 30 mg/kg group (30 mg/kg I-1 by oral gavage), with being administered once a day, and left kidney ischemia-reperfusion was performed on the sixth day, the specific plan was: mice were injected intraperitoneally with 50 mg/kg sodium pentobarbital, after anesthetizing, carried out preserved skin and placed on a thermostatic table, the skin and muscle of the left side were cut from the back and the left kidney was exposed, and the tissue around the pedicle of the kidney was stripped off with forceps to expose the blood vessels, and the arterial clip were used to tighten the blood vessel, after ischemia for 45 min, the arterial clip were released and the kidney tissue was returned to its place with a cotton swab, and finally the muscle and skin were sutured with a suture lines and the mice were placed at 37° C. to wake it up, and given another drug treatment after waking up. Blood was taken from the eyeball after 24 h of reperfusion, and the blood was centrifuged at 12000 g for 10 min at 4° C. after standing at room temperature for 45 min, and the supernatant (serum) was taken to detect the level of creatinine and urea nitrogen in the serum with a biochemical analyzer.
After blood extraction from the mouse eyeballs, cardiac perfusion was performed with PBS, after mice were anesthetized and fixed on a foam plate with a needle, the skin and ribs of the chest and abdomen were cut open to expose the heart, the injection needle was inserted into the left ventricle of mice and the pericardium was cut open at the same time, and the perfusion was performed with PBS at a speed of 7 rpm until the liver turned white and then the perfusion was stopped, the kidneys were taken out, and the renal peritoneum was removed, and the kidneys were put into 4% paraformaldehyde and fixed and immersed for 72 h. Subsequently, tissue embedding was carried out. Then tissue embedding, sectioning and HE staining were performed as follows:
Tissue was dewaxed after embedding and sectioning, and performed antigen repair, 5% goat serum sealing solution was added dropwise at 37° C. for 40 min, 50 μl of KIM-1 and caspase3 primary antibody (1:500) was added dropwise, overnight at 4° C.; after rewarming at 37° C. for 30 min, the tissue was washed by PBS four times, each time for 5 min. And then fluorescence secondary antibody was added dropwise for Ih, and the tissue was washed by PBS four times, each time for 5 min, finally, the tissue was stained by DAPI for 10 min, sealed with nail polish, and images were collected by cytation 3.

The mark [2] stands for this setting: reperfusion 24 h, oral gavage 10 mg/kg and 30 mg/kg, FIG. 1.

Take `O=C(O)C[S+]([O-])c1cc(NS(=O)(=O)c2ccc(Br)cc2)c2ccccc2c1O` (stereo not drawn) [I-1]: in the assay with CUP model mice, the “number of open arm entries (elevated cross maze)” value is recorded as “significantly reduced”, the “walking distance (elevated cross maze)” value is recorded as “reduced”, the “open arm time (elevated cross maze)” value is listed as “significantly decreased” and the “number of crossing over the platform (water maze)” value is on record as “increased”. For the same molecule, the “treatment of TJ01-013 compared with I-14-1” value in the assay on CUP model mice (per readout of the block) was “significantly better”. Also, the “damage to renal tissues (HE staining)” value in assay [1] (FIG. 2) is recorded as “alleviated the damage to renal tissues”. Further, in assay [1] (FIG. 3), the “KIM-1 level in renal tissue (immunostaining)” value was “inhibited” and the “cleaved-caspase3 level in renal tissue (immunostaining)” value was “inhibited”. Besides, in assay [1] (setting [2]), the serum creatinine level result was “significantly reduced” and the “serum urea nitrogen level” value is given as “significantly reduced”.
Consider `O=C(O)C[S+]([O-])c1cc(NS(=O)(=O)c2ccc(C(F)(F)F)cc2)c2ccccc2c1O` (stereo not drawn) [I-14-1], for which, in the assay with CUP model mice, the “number of open arm entries (elevated cross maze)” value was “significantly reduced”, the “walking distance (elevated cross maze)” value is given as “reduced”, the “open arm time (elevated cross maze)” value is on record as “significantly decreased” and the “number of crossing over the platform (water maze)” value is given as “increased”.
Consider `O=C(O)CSc1cc(NS(=O)(=O)c2ccc(Br)cc2)c2ccccc2c1O` [UMI-77, reference compound], for which the “treatment of renal ischemia-reperfusion injury compared with I-1” value in assay [1] (UMI-77 group vs I-1) is on record as “less effective”.
